In PMC11440035, “Interaction of myricetin, ampelopsin (dihydromyricetin), and their sulfate metabolites with serum albumin, cytochrome P450 (CYP2C9, 2C19, and 3A4) enzymes, and organic anion‐transporting polypeptides (OATP1B1 and OATP2B1)” (Pharmacology Research & Perspectives, 2024):
Several values for one entry are separate records, joined by “and”; a condition that tells them apart may be missing. Equal values may be shown once.

Columns and labels:
[1] = system: T1, human serum albumin (HSA); assay: Fluorescence quenching of HSA by flavonoids (Stern–Volmer and modified Stern–Volmer); type: binding; conditions: for albumin‐bound fraction: estimated from K, 1:1 stoichiometry, 1 μM flavonoid, 600 μM HSA (≈ 40 g/L)
T1 construct: purchased Merck (Darmstadt, Germany) A1653
Protocol: Fluorescence spectroscopic measurements were performed in phosphate‐buffered saline (PBS, pH 7.4) at room temperature, using a Hitachi F‐4500 spectrofluorometer (Tokyo, Japan). Increasing amounts of flavonoids (final concentrations: 0, 1, 2, 3, 4, 5, and 6 μM) were added to HSA (2 μM), after which fluorescence emission spectra were collected (λ ex = 295 nm). UV–Vis spectra of MYR, M3′S, AMP, and A4′S were also recorded, and their inner‐filter effects were corrected as it has been reported.[37], [38] Flavonoid–HSA interactions were evaluated based on the graphical application of the Stern–Volmer equation[18], [39]: (1) I0/I=1+KSV×Q where K SV is the Stern–Volmer quenching constant, I 0 denotes the emission intensity of HSA alone at 340 nm, I marks the emission signal of albumin at 340 nm in the presence of flavonoids, while [Q] is the molar concentration of the quencher. Thereafter, binding constants (K) of the formed complexes were determined based on the modified Stern–Volmer equation[39], [40]: (2) I0/I0−I=1/fa×K×1/Q+1/fa where f a is the fraction of the accessible fluorophore.
Using the binding/association constants and assuming 1:1 stoichiometry of complex formation, we estimated the bound fractions of M3′S and A4′S in the circulation based on the following equation[41]: (3) K=FH/F×HSA where [F], [HSA], and [FH] are the molar concentrations of the unbound free flavonoid, the unbound free HSA, and the flavonoid–HSA complex, respectively. In these calculations, we hypothesized the presence of 1.0 μM levels of M3′S or A4′S in the presence of 600 μM (≈ 40 g/L) of HSA.

OATP1B1 = target: T2, OATP1B1 (Homo sapiens, UniProt Q9Y6L6); assay: Inhibition of OATP1B1-mediated disulfopyrene uptake in A431 cells; type: cell-based; conditions: for decrease in the transport activity of OATP1B1 / inhibition of OATP1B1 in words: 25 μM flavonoid; for IC50: disulfopyrene 10 μM, 10 min, HBSS pH 7.4, A431-OATP1B1 cells
T2 construct: expressed in transfected cells; host or cells: A431
T2 sequence (Q9Y6L6 1-691): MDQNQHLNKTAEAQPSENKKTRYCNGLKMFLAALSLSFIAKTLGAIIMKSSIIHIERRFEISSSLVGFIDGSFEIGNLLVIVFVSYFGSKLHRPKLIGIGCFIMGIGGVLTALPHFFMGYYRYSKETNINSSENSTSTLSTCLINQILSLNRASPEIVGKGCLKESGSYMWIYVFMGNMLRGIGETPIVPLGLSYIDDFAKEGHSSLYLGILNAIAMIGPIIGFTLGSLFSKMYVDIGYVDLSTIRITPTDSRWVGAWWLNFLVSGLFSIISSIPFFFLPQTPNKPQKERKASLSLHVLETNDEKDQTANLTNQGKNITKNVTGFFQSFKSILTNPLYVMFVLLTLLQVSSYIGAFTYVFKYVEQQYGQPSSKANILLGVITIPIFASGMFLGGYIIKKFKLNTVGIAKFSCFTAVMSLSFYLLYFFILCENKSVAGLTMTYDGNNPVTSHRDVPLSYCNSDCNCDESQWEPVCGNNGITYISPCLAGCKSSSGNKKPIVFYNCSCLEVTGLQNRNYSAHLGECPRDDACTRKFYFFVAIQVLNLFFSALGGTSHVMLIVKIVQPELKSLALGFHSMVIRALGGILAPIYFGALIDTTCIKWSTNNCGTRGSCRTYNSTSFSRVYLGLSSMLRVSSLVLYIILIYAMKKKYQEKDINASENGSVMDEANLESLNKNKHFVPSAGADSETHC
Protocol: Human A431 cells overexpressing OATPs (OATP1B1 or OATP2B1) and their mock‐transfected controls were established earlier.[42], [43] The cells were maintained at 37°C with 5% CO2 in Dulbecco's Modified Eagle Medium (DMEM; Thermo Fischer Scientific, Waltham, MA, USA) supplemented with fetal bovine serum (10%), L‐glutamine (2 mM), penicillin (100 units/mL) and streptomycin (100 μg/mL).
The inhibitory impacts of MYR, AMP, and their sulfate metabolites on OATP1B1 and OATP2B1 were examined using the fluorescent dye substrates disulfopyrene (6,8‐dihydroxy‐1,3‐disulfopyrene) and pyranine, respectively.[42], [43] The day before the transport measurements, A431 cells overexpressing OATP1B1 or OATP2B1 (and their mock‐transfected controls) were seeded onto 96‐well plates at a density of 80 000 cells/well in DMEM (200 μL). Next day, the medium was removed, the cells were washed three times with PBS (pH 7.4, 200 μL) at room temperature, then the cells were pre‐incubated with 50 μL of Hank's Balanced Salt Solution (HBSS, pH 7.4; OATP1B1) or uptake buffer (pH 5.5; OATP2B1) for 5 min at 37°C with or without the flavonoids.[43] The transport reaction was started by adding 50 μL of disulfopyrene‐containing (final concentration: 10 μM) HBSS (OATP1B1 assay), or pyranine‐containing (final concentration: 20 μM) uptake buffer (OATP2B1 assay). After 10 min (OATP1B1) or 15 min (OATP2B1), the transport was stopped by removing the supernatant and washing the cells three times with ice‐cold PBS (200 μL). Then the fluorescence was measured in 200 μL of PBS using an Enspire plate reader (PerkinElmer, Waltham, MA, US) at excitation and emission wavelengths of 460/510 nm. OATP‐dependent transport was determined by subtracting the fluorescence detected in mock control cells from that of OATP‐expressing cells. Transport activity was measured based on the fluorescence signal in the absence of flavonoids (100%). IC50 values were calculated by sigmoidal fitting (Hill1), using the Origin software (version 2018, OriginLab Corporation, Northampton, MA, USA).

albumin‐bound fraction [1] | decrease in the transport activity of OATP1B1 (OATP1B1) | binding constant (K) of flavonoid–HSA complex ([1]; modified Stern–Volmer equation, HSA 2 μM, flavonoid 0–6 μM, PBS pH 7.4, λex 295 nm, λem 340 nm) | inhibitory strength on OATP1B1 relative to MYR (OATP1B1; ratio of IC50 values) | Compound | inhibition of OATP1B1 in words (OATP1B1) | IC50 (OATP1B1)
~94% | ~70% | – | – | O=C1c2c(O)cc(O)cc2OC(c2cc(O)c(OS(=O)(=O)O)c(O)c2)C1O (stereo not shown) [A4′S, ampelopsin‐4′‐O‐sulfate] | – | –
– | approximately 40% | 5.5 × 10^4 L/mol and ≈ 10^4 L/mol | – | O=C1c2c(O)cc(O)cc2O[C@H](c2cc(O)c(O)c(O)c2)[C@H]1O [AMP, ampelopsin] | – | –
exceeds 99% | – | – | four‐fold stronger | O=c1c(O)c(-c2cc(O)c(O)c(OS(=O)(=O)O)c2)oc2cc(O)cc(O)c12 [M3′S, myricetin‐3′‐O‐sulfate] | close to complete inhibition | 1700 nM and 1660 nM
– | – | – | – | O=c1c(O)c(-c2cc(O)c(O)c(O)c2)oc2cc(O)cc(O)c12 [MYR, myricetin] | close to complete inhibition | 6400 nM
